One experiment concerns the target Prothrombin (Homo sapiens, UniProt P00734). It is filed as functional.
The target in experiment [1] is 5-hydroxytryptamine receptor 2B (Homo sapiens, UniProt P41595). It is filed as functional, cell-based.
The next experiment addresses Histamine H3 receptor (Homo sapiens, UniProt Q9Y5N1).
The target of experiment [2] is Vascular endothelial growth factor receptor 2 (Homo sapiens, UniProt P35968). It is filed as functional.
The next experiment has as its target Acetylcholinesterase (Homo sapiens, UniProt P22303). It is filed as functional.
The target in experiment [3] is T1, Amine oxidase [flavin-containing] A (Homo sapiens, UniProt P21397).
T1 sequence (P21397 whole entry): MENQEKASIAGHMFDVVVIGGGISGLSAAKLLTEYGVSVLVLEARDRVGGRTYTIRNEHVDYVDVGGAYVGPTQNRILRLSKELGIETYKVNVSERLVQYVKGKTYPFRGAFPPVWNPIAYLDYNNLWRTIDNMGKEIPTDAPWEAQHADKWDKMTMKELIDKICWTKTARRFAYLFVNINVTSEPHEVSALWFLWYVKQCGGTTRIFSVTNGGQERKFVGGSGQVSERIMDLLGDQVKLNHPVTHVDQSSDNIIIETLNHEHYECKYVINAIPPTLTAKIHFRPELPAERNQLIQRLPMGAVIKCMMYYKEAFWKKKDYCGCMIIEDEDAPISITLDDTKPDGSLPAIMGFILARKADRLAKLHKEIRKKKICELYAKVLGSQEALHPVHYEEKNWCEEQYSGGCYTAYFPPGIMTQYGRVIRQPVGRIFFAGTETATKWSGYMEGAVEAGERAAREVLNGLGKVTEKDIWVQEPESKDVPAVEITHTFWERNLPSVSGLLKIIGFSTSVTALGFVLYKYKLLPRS
It is filed as functional.

Experiment [4] addresses Voltage-gated inwardly rectifying potassium channel KCNH2 (Homo sapiens, UniProt Q12809). It is filed as functional. Particulars: read-out: AC50.
Experiment [5] addresses T2, Muscarinic acetylcholine receptor M2 (Homo sapiens, UniProt P08172).
T2 sequence (P08172 whole entry): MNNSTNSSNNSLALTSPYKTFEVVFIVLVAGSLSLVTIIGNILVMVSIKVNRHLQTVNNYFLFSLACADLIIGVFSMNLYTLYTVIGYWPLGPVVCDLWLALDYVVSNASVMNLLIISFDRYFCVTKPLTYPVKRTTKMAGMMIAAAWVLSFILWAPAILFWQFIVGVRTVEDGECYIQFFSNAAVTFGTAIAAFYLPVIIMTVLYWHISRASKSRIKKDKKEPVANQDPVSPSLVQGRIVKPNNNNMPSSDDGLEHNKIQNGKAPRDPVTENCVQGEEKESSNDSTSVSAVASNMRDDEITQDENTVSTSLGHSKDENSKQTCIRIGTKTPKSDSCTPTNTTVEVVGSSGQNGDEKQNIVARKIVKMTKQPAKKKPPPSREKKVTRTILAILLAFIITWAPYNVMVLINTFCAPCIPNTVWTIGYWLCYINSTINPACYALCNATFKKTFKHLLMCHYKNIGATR

The next experiment addresses T3, Thromboxane A2 receptor (Homo sapiens, UniProt P21731).
T3 sequence (P21731 whole entry): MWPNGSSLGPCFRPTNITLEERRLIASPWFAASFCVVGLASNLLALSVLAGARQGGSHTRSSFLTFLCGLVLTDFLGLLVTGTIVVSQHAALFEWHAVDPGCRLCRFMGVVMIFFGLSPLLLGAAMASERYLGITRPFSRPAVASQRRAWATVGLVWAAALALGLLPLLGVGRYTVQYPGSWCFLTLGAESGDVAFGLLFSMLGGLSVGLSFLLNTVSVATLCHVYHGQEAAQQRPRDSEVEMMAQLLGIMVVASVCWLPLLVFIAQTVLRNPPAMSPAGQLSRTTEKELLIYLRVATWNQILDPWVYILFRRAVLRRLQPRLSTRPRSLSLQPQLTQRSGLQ
It is filed as functional, cell-based.

Experiment [6] concerns the target T4, Prostaglandin G/H synthase 1 (Homo sapiens, UniProt P23219). It is filed as functional.
Experiment [7] has as its target T5, Alpha-2A adrenergic receptor (Homo sapiens, UniProt P08913).
T5 sequence (P08913 whole entry): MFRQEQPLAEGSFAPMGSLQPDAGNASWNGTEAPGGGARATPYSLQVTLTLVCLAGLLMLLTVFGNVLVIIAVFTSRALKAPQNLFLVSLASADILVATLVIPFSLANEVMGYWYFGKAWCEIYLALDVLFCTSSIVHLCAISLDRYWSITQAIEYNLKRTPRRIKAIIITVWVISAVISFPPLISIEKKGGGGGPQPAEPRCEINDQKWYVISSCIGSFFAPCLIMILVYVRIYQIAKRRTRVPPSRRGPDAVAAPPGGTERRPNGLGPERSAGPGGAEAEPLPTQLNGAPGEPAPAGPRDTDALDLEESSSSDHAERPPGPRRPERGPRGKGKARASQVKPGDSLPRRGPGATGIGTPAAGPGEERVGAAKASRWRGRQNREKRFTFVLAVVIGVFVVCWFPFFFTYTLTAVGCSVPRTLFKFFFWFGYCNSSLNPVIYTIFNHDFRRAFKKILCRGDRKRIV

In experiment [8] the target is cGMP-inhibited 3',5'-cyclic phosphodiesterase 3A (Homo sapiens, UniProt Q14432). It is filed as functional.
In experiment [9] the target is T4, Prostaglandin G/H synthase 1. It is filed as functional. This is another data set of the same source.
In another experiment the target is T6, Adenosine receptor A3 (Homo sapiens, UniProt P0DMS8).
T6 sequence (P0DMS8 whole entry): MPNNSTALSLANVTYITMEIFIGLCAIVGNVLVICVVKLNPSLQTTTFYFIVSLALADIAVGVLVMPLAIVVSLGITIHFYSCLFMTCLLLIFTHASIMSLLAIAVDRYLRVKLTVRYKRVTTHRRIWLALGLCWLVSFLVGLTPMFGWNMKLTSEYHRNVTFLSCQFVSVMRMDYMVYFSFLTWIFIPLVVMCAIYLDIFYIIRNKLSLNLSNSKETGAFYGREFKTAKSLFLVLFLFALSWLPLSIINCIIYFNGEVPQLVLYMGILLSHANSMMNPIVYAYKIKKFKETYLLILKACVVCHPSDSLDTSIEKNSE

The target of the next experiment is Mu-type opioid receptor (Homo sapiens, UniProt P35372).
Note: assay procedure not described here.

Chain of Mu-type opioid receptor (P35372 whole entry): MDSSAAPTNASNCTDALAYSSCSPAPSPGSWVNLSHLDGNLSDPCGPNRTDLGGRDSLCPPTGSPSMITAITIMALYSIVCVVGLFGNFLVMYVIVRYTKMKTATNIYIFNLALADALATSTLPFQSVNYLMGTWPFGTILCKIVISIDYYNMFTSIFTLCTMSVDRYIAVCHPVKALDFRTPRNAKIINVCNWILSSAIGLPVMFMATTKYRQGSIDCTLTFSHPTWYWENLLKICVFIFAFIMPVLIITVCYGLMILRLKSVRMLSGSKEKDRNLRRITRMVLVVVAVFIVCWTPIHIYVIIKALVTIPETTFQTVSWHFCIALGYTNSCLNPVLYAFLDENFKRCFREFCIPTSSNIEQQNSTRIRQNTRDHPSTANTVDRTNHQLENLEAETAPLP
Chain of Vascular endothelial growth factor receptor 2 (P35968 whole entry): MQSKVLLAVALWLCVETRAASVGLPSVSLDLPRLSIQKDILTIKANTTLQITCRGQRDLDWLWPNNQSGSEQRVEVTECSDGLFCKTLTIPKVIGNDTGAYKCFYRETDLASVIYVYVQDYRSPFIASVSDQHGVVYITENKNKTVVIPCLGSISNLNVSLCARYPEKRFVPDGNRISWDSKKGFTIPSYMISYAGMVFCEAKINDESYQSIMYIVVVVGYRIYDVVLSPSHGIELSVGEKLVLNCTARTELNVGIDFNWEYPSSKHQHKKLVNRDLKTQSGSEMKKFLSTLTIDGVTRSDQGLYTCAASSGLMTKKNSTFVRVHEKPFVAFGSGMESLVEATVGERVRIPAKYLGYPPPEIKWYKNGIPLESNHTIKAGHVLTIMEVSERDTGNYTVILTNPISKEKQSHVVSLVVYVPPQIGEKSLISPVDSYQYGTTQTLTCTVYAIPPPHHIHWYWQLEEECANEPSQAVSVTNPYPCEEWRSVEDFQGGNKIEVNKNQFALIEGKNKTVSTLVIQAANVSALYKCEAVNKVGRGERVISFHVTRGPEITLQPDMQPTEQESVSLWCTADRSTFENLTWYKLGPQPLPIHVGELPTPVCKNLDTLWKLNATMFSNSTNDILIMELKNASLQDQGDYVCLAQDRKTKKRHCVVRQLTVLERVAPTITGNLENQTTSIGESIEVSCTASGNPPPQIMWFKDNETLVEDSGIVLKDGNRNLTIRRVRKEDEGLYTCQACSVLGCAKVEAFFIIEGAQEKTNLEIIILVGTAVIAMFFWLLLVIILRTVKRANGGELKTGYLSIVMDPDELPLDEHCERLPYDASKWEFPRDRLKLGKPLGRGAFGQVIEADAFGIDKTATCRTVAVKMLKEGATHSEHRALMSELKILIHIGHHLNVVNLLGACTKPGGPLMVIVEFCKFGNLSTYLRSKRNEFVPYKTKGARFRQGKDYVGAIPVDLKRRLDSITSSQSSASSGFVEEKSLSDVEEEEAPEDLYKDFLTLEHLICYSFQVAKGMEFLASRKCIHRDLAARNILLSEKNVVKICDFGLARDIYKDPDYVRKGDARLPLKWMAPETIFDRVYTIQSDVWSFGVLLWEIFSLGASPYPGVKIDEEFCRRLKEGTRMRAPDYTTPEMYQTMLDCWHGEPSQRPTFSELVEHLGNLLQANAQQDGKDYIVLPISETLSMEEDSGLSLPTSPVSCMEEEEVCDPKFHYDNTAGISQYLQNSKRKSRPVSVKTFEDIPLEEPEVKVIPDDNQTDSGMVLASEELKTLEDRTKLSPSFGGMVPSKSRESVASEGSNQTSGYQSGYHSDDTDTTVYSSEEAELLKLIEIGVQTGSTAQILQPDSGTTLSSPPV
Chain of Acetylcholinesterase (P22303 whole entry): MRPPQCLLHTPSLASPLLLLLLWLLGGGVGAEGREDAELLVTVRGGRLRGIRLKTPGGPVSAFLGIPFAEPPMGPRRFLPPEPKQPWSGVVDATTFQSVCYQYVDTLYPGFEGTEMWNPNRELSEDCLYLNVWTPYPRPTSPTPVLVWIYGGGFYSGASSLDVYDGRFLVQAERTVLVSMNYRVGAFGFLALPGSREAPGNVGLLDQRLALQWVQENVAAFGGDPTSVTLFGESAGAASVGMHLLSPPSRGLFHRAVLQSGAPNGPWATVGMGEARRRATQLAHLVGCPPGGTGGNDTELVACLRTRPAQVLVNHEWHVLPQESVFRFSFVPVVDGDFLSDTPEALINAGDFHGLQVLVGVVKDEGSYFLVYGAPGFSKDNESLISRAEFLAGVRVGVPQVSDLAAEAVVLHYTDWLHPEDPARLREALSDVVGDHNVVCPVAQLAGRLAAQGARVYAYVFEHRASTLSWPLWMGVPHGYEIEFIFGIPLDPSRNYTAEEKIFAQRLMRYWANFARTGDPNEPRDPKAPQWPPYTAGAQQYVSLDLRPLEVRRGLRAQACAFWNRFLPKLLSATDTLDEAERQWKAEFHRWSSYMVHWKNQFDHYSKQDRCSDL
Chain of Voltage-gated inwardly rectifying potassium channel KCNH2 (Q12809 whole entry): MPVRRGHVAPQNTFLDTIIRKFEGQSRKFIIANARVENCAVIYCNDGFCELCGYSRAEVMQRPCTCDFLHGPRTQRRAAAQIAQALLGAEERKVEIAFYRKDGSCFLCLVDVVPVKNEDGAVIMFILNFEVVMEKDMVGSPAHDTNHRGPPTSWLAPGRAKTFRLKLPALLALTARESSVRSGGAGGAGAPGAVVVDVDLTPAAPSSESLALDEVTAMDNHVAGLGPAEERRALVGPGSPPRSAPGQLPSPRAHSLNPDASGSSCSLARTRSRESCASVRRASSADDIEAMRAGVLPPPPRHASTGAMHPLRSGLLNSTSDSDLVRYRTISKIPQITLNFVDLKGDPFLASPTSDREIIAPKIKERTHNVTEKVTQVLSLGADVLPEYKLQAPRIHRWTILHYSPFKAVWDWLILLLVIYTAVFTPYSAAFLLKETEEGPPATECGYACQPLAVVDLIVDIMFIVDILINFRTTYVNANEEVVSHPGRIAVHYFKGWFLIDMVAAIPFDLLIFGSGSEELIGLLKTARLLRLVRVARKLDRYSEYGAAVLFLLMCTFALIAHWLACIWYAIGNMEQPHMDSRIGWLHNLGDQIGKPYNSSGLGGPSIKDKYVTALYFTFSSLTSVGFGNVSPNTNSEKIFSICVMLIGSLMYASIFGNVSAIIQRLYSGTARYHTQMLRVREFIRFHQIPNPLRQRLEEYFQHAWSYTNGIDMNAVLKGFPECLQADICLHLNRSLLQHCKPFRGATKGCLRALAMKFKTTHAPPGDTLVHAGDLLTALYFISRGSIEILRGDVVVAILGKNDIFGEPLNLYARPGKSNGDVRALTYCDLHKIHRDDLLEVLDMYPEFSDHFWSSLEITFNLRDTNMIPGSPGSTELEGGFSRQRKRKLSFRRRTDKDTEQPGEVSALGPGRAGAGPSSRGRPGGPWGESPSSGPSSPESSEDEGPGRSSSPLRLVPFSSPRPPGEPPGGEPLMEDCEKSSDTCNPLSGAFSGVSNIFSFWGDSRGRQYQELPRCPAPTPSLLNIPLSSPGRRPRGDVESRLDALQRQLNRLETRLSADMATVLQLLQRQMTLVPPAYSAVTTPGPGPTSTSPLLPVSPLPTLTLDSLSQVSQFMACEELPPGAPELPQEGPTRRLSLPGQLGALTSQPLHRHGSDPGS
Chain of Histamine H3 receptor (Q9Y5N1 whole entry): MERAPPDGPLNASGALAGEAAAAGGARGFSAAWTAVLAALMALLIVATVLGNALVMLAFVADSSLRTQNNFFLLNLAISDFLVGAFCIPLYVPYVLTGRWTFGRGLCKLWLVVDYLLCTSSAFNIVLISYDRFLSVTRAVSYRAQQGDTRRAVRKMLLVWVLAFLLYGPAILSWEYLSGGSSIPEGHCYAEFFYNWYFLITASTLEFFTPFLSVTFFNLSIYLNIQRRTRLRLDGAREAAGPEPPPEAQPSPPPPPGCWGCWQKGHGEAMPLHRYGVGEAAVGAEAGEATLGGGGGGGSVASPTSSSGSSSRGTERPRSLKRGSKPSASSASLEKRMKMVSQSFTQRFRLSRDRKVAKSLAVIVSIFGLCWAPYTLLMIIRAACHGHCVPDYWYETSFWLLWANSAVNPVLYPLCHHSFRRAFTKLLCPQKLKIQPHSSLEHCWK
Chain of 5-hydroxytryptamine receptor 2B (P41595 whole entry): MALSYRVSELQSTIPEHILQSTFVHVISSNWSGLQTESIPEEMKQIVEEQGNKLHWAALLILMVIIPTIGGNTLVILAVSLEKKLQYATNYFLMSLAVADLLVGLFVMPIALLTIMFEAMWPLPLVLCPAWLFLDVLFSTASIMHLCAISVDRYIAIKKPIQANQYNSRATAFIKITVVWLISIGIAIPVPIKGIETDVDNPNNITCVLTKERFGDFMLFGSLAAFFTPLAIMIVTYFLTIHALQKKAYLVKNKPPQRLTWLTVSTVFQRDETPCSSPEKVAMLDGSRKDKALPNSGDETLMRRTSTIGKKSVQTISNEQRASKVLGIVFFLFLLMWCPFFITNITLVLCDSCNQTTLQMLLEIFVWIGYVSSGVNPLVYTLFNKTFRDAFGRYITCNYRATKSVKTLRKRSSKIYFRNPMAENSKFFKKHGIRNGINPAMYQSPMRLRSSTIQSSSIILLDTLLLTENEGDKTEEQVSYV
T4 sequence (P23219 whole entry): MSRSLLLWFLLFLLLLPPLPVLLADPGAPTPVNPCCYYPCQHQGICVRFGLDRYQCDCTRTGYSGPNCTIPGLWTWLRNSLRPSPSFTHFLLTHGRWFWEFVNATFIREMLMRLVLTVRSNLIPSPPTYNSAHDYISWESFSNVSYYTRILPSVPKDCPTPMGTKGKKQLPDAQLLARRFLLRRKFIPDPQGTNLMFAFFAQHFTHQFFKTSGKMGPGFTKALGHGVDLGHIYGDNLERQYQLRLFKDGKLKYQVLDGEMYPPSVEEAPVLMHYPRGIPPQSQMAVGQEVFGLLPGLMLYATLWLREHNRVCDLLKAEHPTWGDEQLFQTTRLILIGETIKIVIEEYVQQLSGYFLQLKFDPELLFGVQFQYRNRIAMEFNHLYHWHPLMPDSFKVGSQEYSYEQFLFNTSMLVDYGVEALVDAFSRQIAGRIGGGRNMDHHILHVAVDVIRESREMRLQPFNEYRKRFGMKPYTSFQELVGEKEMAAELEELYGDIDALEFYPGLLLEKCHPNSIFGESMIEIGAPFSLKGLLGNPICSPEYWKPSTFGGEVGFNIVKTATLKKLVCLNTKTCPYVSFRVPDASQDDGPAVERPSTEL

The term AC50 denotes the midpoint of the concentration-response curve, whichever way the signal moves. On to `O=C(Nc1ccc(Cl)cc1)Nc1ccc(Cl)c(Cl)c1` [TRICLOCARBAN], for which the concentration at half-maximal activity (AC50) (on Prothrombin; in [1]; on Histamine H3 receptor; in [2]; at Acetylcholinesterase; in experiment [3]) was > 30 µM throughout. In addition, the AC50 is > 30 µM in [4]; > 30 µM in experiment [5]; > 30 µM at Thromboxane A2 receptor; > 30 µM in experiment [6]; > 30 µM in experiment [7]; 11.6 µM in [8]. The concentration at half-maximal activity (AC50) is > 30 µM in [9], 2.08 µM on Adenosine receptor A3 and 4.85 µM at Mu-type opioid receptor.

For `COc1cc2c3cc1Oc1cc(ccc1O)C[C@@H]1c4c(cc(OC)c(O)c4Oc4ccc(cc4)C[C@@H]3N(C)CC2)CC[N+]1(C)C` [TUBOCURARINE], the AC50 (on Prothrombin; in [1]; at Histamine H3 receptor; in [2]; on Acetylcholinesterase; in experiment [3]) was > 30 µM throughout. The AC50 (in experiment [4]; in experiment [5]; at Thromboxane A2 receptor; in [6]; in experiment [7]; in experiment [8]) was > 30 µM in each case. In addition, the values for the AC50 (in [9]; at Adenosine receptor A3; on Mu-type opioid receptor) were > 30 µM, > 30 µM and 24.1 µM, respectively.

Turning to `CCOc1ccccc1OCC1CNCCO1` (stereo not given) [VILOXAZINE], the AC50 (at Prothrombin; in experiment [1]; on Histamine H3 receptor; in experiment [2]; on Acetylcholinesterase; in experiment [3]) was > 30 µM each time. The AC50 (in experiment [4]; in experiment [5]; on Thromboxane A2 receptor; in experiment [6]; in [7]; in experiment [8]) was > 30 µM each time. The AC50 (in [9]; at Adenosine receptor A3; on Mu-type opioid receptor) was > 30 µM in each case.

`OC[C@@H](O)[C@H](O)[C@@H](O)CO` [XYLITOL]: the half-maximal activity concentration (AC50) (at Prothrombin; in [1]; on Histamine H3 receptor; in experiment [2]; at Acetylcholinesterase; in experiment [3]) was > 30 µM in each case. The AC50 (in experiment [4]; in experiment [5]; at Thromboxane A2 receptor; in experiment [6]; in experiment [7]; in experiment [8]) was > 30 µM each time. The AC50 (in experiment [9]; on Adenosine receptor A3; on Mu-type opioid receptor) was > 30 µM throughout.
